Target: T1, LIMK2 (Homo sapiens, UniProt P53671)
T1 construct: His tag (histidine-tagged; pFastBacHT vector); made in house; host or cells: Sf9 insect cells (BAC-to-BAC baculovirus system)
Assay: In vitro LIMK2 inhibition assay (33P incorporation into myelin basic protein flash plates)
Type: biochemical
Description: Using the procedures described herein and methods known in the art, the additional compounds listed below in Table 1 were prepared. The LIMK2 IC50 data that is provided below for some of the compounds was determined using the assay described in Example 32.
An in vitro assay used to identify LIMK2 inhibitors was developed. The analytical readout was the incorporation of ^33P from ATP substrate into immobilized myelin basic protein coated flash plates (Perkin Elmer Biosciences), which were counted on a scintillation counter equipped with a plate reader (TopCount, Packard Bioscience, Meriden, Conn.). Using 384 well flat MBP flashplates, total assay volume was 50 μl. The HTS program utilized a Biomek FX for dilution.
For each assay, the ingredients and conditions were as follows: 200 ng of enzyme was incubated in assay buffer (1× assay buffer contains 30 mM HEPES (pH 8.0), 5 mM DTT, and 10 mM MgCl2), 10 μM ATP, 0.2 μCi [gamma-^33P]-ATP and 10 μM of potential inhibitory compound. The reaction was incubated at room temperature for 60 minutes, washed 3 times with 75 μl of stop/wash buffer (1× stop/was buffer contains 50 mM EDTA and 20 mM Tris (pH 7.4)), and then the plates were read on the scintillation counter. Different concentrations of staurosporine (400 nM, 200 nM, 100 nM and 50 nM; purchased from BIOMOL (Plymouth Meeting, Pa.)) were used as controls on each plate.

T1 sequence (P53671 whole entry): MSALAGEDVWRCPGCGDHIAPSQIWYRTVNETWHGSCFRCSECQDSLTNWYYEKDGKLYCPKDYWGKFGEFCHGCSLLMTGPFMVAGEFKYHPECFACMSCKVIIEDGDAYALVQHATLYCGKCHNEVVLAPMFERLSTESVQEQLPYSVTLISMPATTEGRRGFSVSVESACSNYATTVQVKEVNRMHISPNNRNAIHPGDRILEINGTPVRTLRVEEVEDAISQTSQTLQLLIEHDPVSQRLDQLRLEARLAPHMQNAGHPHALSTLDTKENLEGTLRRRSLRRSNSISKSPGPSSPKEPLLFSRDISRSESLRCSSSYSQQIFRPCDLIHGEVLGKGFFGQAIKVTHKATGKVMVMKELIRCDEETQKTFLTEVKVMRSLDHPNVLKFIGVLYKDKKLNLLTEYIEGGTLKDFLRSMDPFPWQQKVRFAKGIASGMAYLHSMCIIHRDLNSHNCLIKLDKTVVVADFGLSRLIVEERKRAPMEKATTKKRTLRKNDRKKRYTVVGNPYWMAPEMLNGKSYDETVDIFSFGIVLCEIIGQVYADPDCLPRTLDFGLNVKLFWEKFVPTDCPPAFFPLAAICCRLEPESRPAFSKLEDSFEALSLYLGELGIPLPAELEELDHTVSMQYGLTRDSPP

Structure (SMILES) | IC50 [nM]
CC(=O)NCC1(C(=O)Nc2cccc(OC(=O)N(C)C)c2)CCN(c2ncnc3[nH]cc(C)c23)CC1 [3-(4-(acetamidomethyl)-1-(5-methyl-7H-pyrrolo[2,3-d]pyrimidin-4-yl)piperidine-4-carboxamido)phenyl dimethylcarbamate] | < 250
CCN(CC)C(=O)Oc1cccc(NC(=O)C2(CN)CCN(c3ncnc4[nH]cc(C)c34)CC2)c1 [3-(4-(aminomethyl)-1-(5-methyl-7H-pyrrolo[2,3-d]pyrimidin-4-yl)piperidine-4-carboxamido)phenyl diethylcarbamate] | < 250
Cc1c[nH]c2ncnc(N3CCC(CN)(C(=O)Nc4cccc(OC(=O)N5CCCC5)c4)CC3)c12 [3-(4-(aminomethyl)-1-(5-methyl-7H-pyrrolo[2,3-d]pyrimidin-4-yl)piperidine-4-carboxamido)phenyl pyrrolidine-1-carboxylate] | < 250
Cc1c[nH]c2ncnc(N3CCC(CN=[N+]=[N-])(C(=O)Nc4cccc(OC(=O)N(C)C)c4)CC3)c12 [3-(4-(azidomethyl)-1-(5-methyl-7H-pyrrolo[2,3-d]pyrimidin-4-yl)piperidine-4-carboxamido)phenyl dimethylcarbamate] | < 250
C=CCC1(C(=O)Nc2cccc(OC(=O)N(C)C)c2)CCN(c2ncnc3[nH]cc(C)c23)CC1 [3-(4-allyl-1-(5-methyl-7H-pyrrolo[2,3-d]pyrimidin-4-yl)piperidine-4-carboxamido)phenyl dimethylcarbamate] | < 250
Cc1c[nH]c2ncnc(N3CCC(C#N)(C(=O)Nc4cccc(OC(=O)N(C)C)c4)CC3)c12 [3-(4-cyano-1-(5-methyl-7H-pyrrolo[2,3-d]pyrimidin-4-yl)piperidine-4-carboxamido)phenyl dimethylcarbamate] | < 250
Cc1c[nH]c2ncnc(N3CCC(C(=O)Nc4cccc(OC(=O)N(C)C)c4)(C(C)C)CC3)c12 [3-(4-isopropyl-1-(5-methyl-7H-pyrrolo[2,3-d]pyrimidin-4-yl)piperidine-4-carboxamido)phenyl dimethylcarbamate] | < 250
Cc1c[nH]c2ncnc(N3CCC(C)(C(=O)Nc4cccc(OC(=O)N5CCOCC5)c4)CC3)c12 [3-(4-methyl-1-(5-methyl-7H-pyrrolo[2,3-d]pyrimidin-4-yl)piperidine-4-carboxamido)phenyl morpholine-4-carboxylate] | < 250
CNc1nc2ccc(NC(=O)C3(CN)CCN(c4ncnc5[nH]cc(C)c45)CC3)cc2o1 [4-(aminomethyl)-1-(5-methyl-7H-pyrrolo[2,3-d]pyrimidin-4-yl)-N-(2-(methylamino)benzo[d]oxazol-6-yl)piperidine-4-carboxamide] | < 500
Cc1c[nH]c2ncnc(N3CCC(CN)(C(=O)Nc4cccc(-c5cnco5)c4)CC3)c12 [4-(aminomethyl)-1-(5-methyl-7H-pyrrolo[2,3-d]pyrimidin-4-yl)-N-(3-(oxazol-5-yl)phenyl)piperidine-4-carboxamide] | < 250
Cc1c[nH]c2ncnc(N3CCC(CN)(C(=O)Nc4cccc(C(F)(F)F)c4)CC3)c12 [4-(aminomethyl)-1-(5-methyl-7H-pyrrolo[2,3-d]pyrimidin-4-yl)-N-(3-(trifluoromethyl)phenyl)piperidine-4-carboxamide] | < 250
Cc1cccc(NC(=O)C2(CN)CCN(c3ncnc4[nH]cc(C)c34)CC2)c1 [4-(aminomethyl)-1-(5-methyl-7H-pyrrolo[2,3-d]pyrimidin-4-yl)-N-m-tolylpiperidine-4-carboxamide] | < 250
Cc1c[nH]c2ncnc(N3CCC(CN)(C(=O)Nc4ccc5nc(N(C)C)oc5c4)CC3)c12 [4-(aminomethyl)-N-(2-(dimethylamino)benzo[d]oxazol-6-yl)-1-(5-methyl-7H-pyrrolo[2,3-d]pyrimidin-4-yl)piperidine-4-carboxamide] | < 500
Cc1c[nH]c2ncnc(N3CCC(CN)(C(=O)Nc4cccc(OCC(=O)N(C)C)c4)CC3)c12 [4-(aminomethyl)-N-(3-(2-(dimethylamino)-2-oxoethoxy)phenyl)-1-(5-methyl-7H-pyrrolo[2,3-d]pyrimidin-4-yl)piperidine-4-carboxamide] | < 250
COCCOc1cccc(NC(=O)C2(CN)CCN(c3ncnc4[nH]cc(C)c34)CC2)c1 [4-(aminomethyl)-N-(3-(2-methoxyethoxy)phenyl)-1-(5-methyl-7H-pyrrolo[2,3-d]pyrimidin-4-yl)piperidine-4-carboxamide] | < 250
Cc1c[nH]c2ncnc(N3CCC(CN)(C(=O)Nc4cccc(C(=O)N(C)C)c4)CC3)c12 [4-(aminomethyl)-N-(3-(dimethylcarbamoyl)phenyl)-1-(5-methyl-7H-pyrrolo[2,3-d]pyrimidin-4-yl)piperidine-4-carboxamide] | < 250
Cc1c[nH]c2ncnc(N3CCC(CN)(C(=O)Nc4cccc(C(=O)NC(C)C)c4)CC3)c12 [4-(aminomethyl)-N-(3-(isopropylcarbamoyl)phenyl)-1-(5-methyl-7H-pyrrolo[2,3-d]pyrimidin-4-yl)piperidine-4-carboxamide] | < 250

Structure (SMILES) | IC50 [nM]
Cc1c[nH]c2ncnc(N3CCC(CN)(C(=O)Nc4cccc(Br)c4)CC3)c12 [4-(aminomethyl)-N-(3-bromophenyl)-1-(5-methyl-7H-pyrrolo[2,3-d]pyrimidin-4-yl)piperidine-4-carboxamide] | < 250
Cc1c[nH]c2ncnc(N3CCC(CN)(C(=O)Nc4cccc(Cl)c4)CC3)c12 [4-(aminomethyl)-N-(3-chlorophenyl)-1-(5-methyl-7H-pyrrolo[2,3-d]pyrimidin-4-yl)piperidine-4-carboxamide] | < 250
Cc1c[nH]c2ncnc(N3CCC(CN)(C(=O)Nc4cccc(C#N)c4)CC3)c12 [4-(aminomethyl)-N-(3-cyanophenyl)-1-(5-methyl-7H-pyrrolo[2,3-d]pyrimidin-4-yl)piperidine-4-carboxamide] | < 250
Cc1c[nH]c2ncnc(N3CCC(CN)(C(=O)Nc4cccc(F)c4)CC3)c12 [4-(aminomethyl)-N-(3-fluorophenyl)-1-(5-methyl-7H-pyrrolo[2,3-d]pyrimidin-4-yl)piperidine-4-carboxamide] | < 250
Cc1c[nH]c2ncnc(N3CCC(CN)(C(=O)Nc4cccc(O)c4)CC3)c12 [4-(aminomethyl)-N-(3-hydroxyphenyl)-1-(5-methyl-7H-pyrrolo[2,3-d]pyrimidin-4-yl)piperidine-4-carboxamide] | < 250
Cc1c[nH]c2ncnc(N3CCC(CN)(C(=O)Nc4cccc(OC(C)C)c4)CC3)c12 [4-(aminomethyl)-N-(3-isopropoxyphenyl)-1-(5-methyl-7H-pyrrolo[2,3-d]pyrimidin-4-yl)piperidine-4-carboxamide] | < 250
COc1cccc(NC(=O)C2(CN)CCN(c3ncnc4[nH]cc(C)c34)CC2)c1 [4-(aminomethyl)-N-(3-methoxyphenyl)-1-(5-methyl-7H-pyrrolo[2,3-d]pyrimidin-4-yl)piperidine-4-carboxamide] | < 250
Cc1c[nH]c2ncnc(N3CCC(CN)(C(=O)Nc4cccc(C(C)(C)C)c4)CC3)c12 [4-(aminomethyl)-N-(3-tert-butylphenyl)-1-(5-methyl-7H-pyrrolo[2,3-d]pyrimidin-4-yl)piperidine-4-carboxamide] | < 250
C=CCC1(C(=O)Nc2cccc(Oc3ccc(F)cc3)c2)CCN(c2ncnc3[nH]cc(C)c23)CC1 [4-allyl-N-(3-(4-fluorophenoxy)phenyl)-1-(5-methyl-7H-pyrrolo[2,3-d]pyrimidin-4-yl)piperidine-4-carboxamide] | < 250
C=CCC1(C(=O)Nc2cccc(Br)c2)CCN(c2ncnc3[nH]cc(C)c23)CC1 [4-allyl-N-(3-bromophenyl)-1-(5-methyl-7H-pyrrolo[2,3-d]pyrimidin-4-yl)piperidine-4-carboxamide] | < 250
C=CCC1(C(=O)Nc2cccc(F)c2)CCN(c2ncnc3[nH]cc(C)c23)CC1 [4-allyl-N-(3-fluorophenyl)-1-(5-methyl-7H-pyrrolo[2,3-d]pyrimidin-4-yl)piperidine-4-carboxamide] | < 250
C=CCC1(C(=O)Nc2cccc(OC)c2)CCN(c2ncnc3[nH]cc(C)c23)CC1 [4-allyl-N-(3-methoxyphenyl)-1-(5-methyl-7H-pyrrolo[2,3-d]pyrimidin-4-yl)piperidine-4-carboxamide] | < 250
C=CCC1(C(=O)Nc2cccc(C(C)(C)C)c2)CCN(c2ncnc3[nH]cc(C)c23)CC1 [4-allyl-N-(3-tert-butylphenyl)-1-(5-methyl-7H-pyrrolo[2,3-d]pyrimidin-4-yl)piperidine-4-carboxamide] | < 250
Cc1c[nH]c2ncnc(N3CCC(C)(C(=O)Nc4cccc(C(F)(F)F)c4)CC3)c12 [4-methyl-1-(5-methyl-7H-pyrrolo[2,3-d]pyrimidin-4-yl) N-(3-(trifluoromethyl)phenyl)piperidine-4-carboxamide] | < 250
Cc1c[nH]c2ncnc(N3CCC(C)(C(=O)Nc4cccc(S(=O)(=O)N5CCOCC5)c4)CC3)c12 [4-methyl-1-(5-methyl-7H-pyrrolo[2,3-d]pyrimidin-4-yl)-N-(3-(morpholinosulfonyl)phenyl)piperidine-4-carboxamide] | < 250
Cc1cccc(NC(=O)C2(C)CCN(c3ncnc4[nH]cc(C)c34)CC2)c1 [4-methyl-1-(5-methyl-7H-pyrrolo[2,3-d]pyrimidin-4-yl)-N-m-tolylpiperidine-4-carboxamide] | < 250
